Each structure is given as a SMILES string. “And” between values parts separate entries of the source, which are not always exact repeats. Equal entries are not always repeated.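 Values below derive from 48-hour exposures of cells grown in 96-well plates, with endpoints linearly interpolated between the two concentrations bracketing the appropriate inhibition level. At the GI50, growth is halved. Definition used: TGI = concentration required for complete inhibition of growth.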

Results on 19 molecules are retold here after PubChem BioAssay (NCI).

Among the test systems are HCT-15 colon; SW-620 colon; RXF 393 renal; HOP-62 NSCLC; UACC-257 melanoma; NCI-H226 lung; A498 renal; UO-31 renal; HCC-2998 colon; OVCAR-3 ovarian.
Holding throughout (assay): growth of human tumour cells (NCI), 48 h

Consider `COC(=O)/C(=C/c1ccc(OC)cc1)C(C(=O)O)=C1CCCCC1`, for which the TGI in the experiment on HCT-15 colon, with SW-620 colon, in the experiment with RXF 393 renal, in the experiment with HOP-62 NSCLC, in the experiment with UACC-257 melanoma and with NCI-H226 lung was greater than 100 µM each time. Besides, the TGI with A498 renal and in the experiment with UO-31 renal was greater than 100 µM throughout.

`COc1cc2c3c(c1OC)C(=O)C=C3N(S(=O)(=O)c1ccc(C)cc1)CC2`: the TGI in the experiment on HCT-15 colon, with SW-620 colon, in the experiment on HOP-62 NSCLC, in the experiment on HCC-2998 colon, with UACC-257 melanoma and with OVCAR-3 ovarian was greater than 100 µM throughout. Also, the TGI in the experiment on NCI-H226 lung, in the experiment with A498 renal and with UO-31 renal was greater than 100 µM each time.

For the molecule `O=c1[nH]c(=O)n(C2CC(O)C(CO)O2)cc1COCC(F)(F)F` (stereo unspecified), the TGI with SW-620 colon, in the experiment on RXF 393 renal, in the experiment on HOP-62 NSCLC, in the experiment on HCC-2998 colon, with UACC-257 melanoma and in the experiment with OVCAR-3 ovarian was greater than 100 µM throughout. In addition, the TGI in the experiment with A498 renal and in the experiment with UO-31 renal was greater than 100 µM in each case.

Turning to `CCN(CC)c1ccc(/C=N/NC(=O)CSc2nc3ccccc3c(=O)n2Cc2ccc(S(N)(=O)=O)cc2)c(O)c1`, the GI50 was 3.62 µM in the experiment on HCT-15 colon; 0.949 µM with SW-620 colon; 2.5 µM with RXF 393 renal; 0.961 µM in the experiment on HOP-62 NSCLC; 0.882 µM in the experiment with HCC-2998 colon; 3.03 µM in the experiment on UACC-257 melanoma. In addition, the GI50 was 0.287 µM in the experiment with OVCAR-3 ovarian, 0.895 µM in the experiment on NCI-H226 lung and 2.89 µM in the experiment on UO-31 renal. Further, the TGI with HCT-15 colon, in the experiment with SW-620 colon, in the experiment on RXF 393 renal, in the experiment with HOP-62 NSCLC, in the experiment on HCC-2998 colon and in the experiment with UACC-257 melanoma was greater than 100 µM throughout. Also, the TGI in the experiment on OVCAR-3 ovarian, in the experiment with NCI-H226 lung and in the experiment with UO-31 renal was greater than 100 µM each time.

`CC1(C)C(=O)C(=Cc2ccco2)C1=O`: the TGI with HCT-15 colon, in the experiment with SW-620 colon, in the experiment on HCC-2998 colon, in the experiment with UACC-257 melanoma, with NCI-H226 lung and with A498 renal was greater than 100 µM each time. In addition, the TGI in the experiment with UO-31 renal was greater than 100 µM.

Take `CC12OC(C(=O)C13CCC3)C1C(=O)c3ccc4c(ccc5ccccc54)c3C(=O)C12` (stereo unspecified): the GI50 in the experiment with HCT-15 colon is 4.27 µM; with RXF 393 renal, 13.3 µM; with HOP-62 NSCLC it was 25.2 µM; in the experiment with UACC-257 melanoma it was 10.7 µM; in the experiment with OVCAR-3 ovarian it was 0.388 µM; with A498 renal it was 8.74 µM. In addition, in the experiment with UO-31 renal, the GI50 was 25.7 µM. Moreover, the TGI was 22.4 µM in the experiment on HCT-15 colon; 30.3 µM in the experiment with RXF 393 renal; 53.4 µM with HOP-62 NSCLC; 39.3 µM in the experiment with UACC-257 melanoma; 2.47 µM in the experiment with OVCAR-3 ovarian; 29.6 µM with A498 renal. Further, the TGI in the experiment on UO-31 renal was greater than 100 µM.

As to `COc1cc2c(c(OC)c1OC)-c1ccc(SC)c(=O)cc1C(CC(=O)Oc1cccc(F)c1)C2` (stereo unspecified), the TGI in the experiment with HCT-15 colon is 1.97 µM; with SW-620 colon it was greater than 100 µM; in the experiment with RXF 393 renal, greater than 100 µM; with HOP-62 NSCLC it was greater than 100 µM; in the experiment on HCC-2998 colon, 0.426 µM; with UACC-257 melanoma it was greater than 100 µM. Further, the TGI is 0.305 µM in the experiment on OVCAR-3 ovarian, 0.794 µM in the experiment with NCI-H226 lung and greater than 100 µM with UO-31 renal.

Regarding `S=C(CSc1ccccc1)Nc1cccc2ccccc12`, the TGI with HCT-15 colon is greater than 100 µM; in the experiment on SW-620 colon, greater than 100 µM; in the experiment on RXF 393 renal, greater than 100 µM; with HOP-62 NSCLC, greater than 100 µM; with UACC-257 melanoma, 68.3 µM; in the experiment with OVCAR-3 ovarian it was 88.7 µM. In addition, the TGI with NCI-H226 lung was greater than 100 µM; in the experiment with A498 renal, 71 µM; with UO-31 renal, greater than 100 µM.

Turning to `CCC(=O)C(C(=O)CC)c1c(OC(=O)c2ccccc2)ccc(O)c1C(=O)OC`, the TGI with HCT-15 colon, in the experiment on SW-620 colon, in the experiment on RXF 393 renal, in the experiment on HOP-62 NSCLC, with UACC-257 melanoma and in the experiment with OVCAR-3 ovarian was greater than 100 µM throughout. Moreover, the TGI with NCI-H226 lung, in the experiment on A498 renal and in the experiment on UO-31 renal was greater than 100 µM in each case.

In the case of `COc1ccc2c(c1)[n+](=O)c(C(=O)CC(=O)C(=O)Nc1cccc(C)c1C)c(C)n2[O-]`, the TGI in the experiment on HCT-15 colon, in the experiment on SW-620 colon, with RXF 393 renal, in the experiment on HOP-62 NSCLC, in the experiment on HCC-2998 colon and in the experiment on UACC-257 melanoma was greater than 100 µM each time. The TGI with OVCAR-3 ovarian, in the experiment with NCI-H226 lung and in the experiment on UO-31 renal was greater than 100 µM throughout.

Consider `Cc1ccc(C2C(Cl)C(=O)N2NC(=O)c2ccc(N)cc2)cc1` (stereo unspecified), for which the TGI is 29.9 µM with HCT-15 colon; 41.3 µM with SW-620 colon; 50.2 µM in the experiment on HOP-62 NSCLC; greater than 100 µM with HCC-2998 colon; 66.1 µM with UACC-257 melanoma; 36.7 µM in the experiment with OVCAR-3 ovarian. For the same molecule, the results for the TGI in the experiment on NCI-H226 lung, with A498 renal and in the experiment with UO-31 renal were 65.4 µM, 56.4 µM and 86.5 µM, respectively.

Take `O=C([CH-]C(=O)c1ccccc1)c1ccccc1.O=C([CH-]C(=O)c1ccccc1)c1ccccc1.O=C([CH-]C(=O)c1ccccc1)c1ccccc1.[Cl-].[Zr+4]`: the GI50 with HCT-15 colon was 18.2 µM; in the experiment on SW-620 colon, 33.8 µM; with RXF 393 renal it was 15 µM; in the experiment with HOP-62 NSCLC, 20.1 µM; in the experiment on UACC-257 melanoma, 17.2 µM; with OVCAR-3 ovarian it was 10.6 µM. In addition, the GI50 with A498 renal was 18.7 µM. In addition, the TGI is greater than 100 µM with HCT-15 colon; greater than 100 µM in the experiment with SW-620 colon; 71.9 µM in the experiment with RXF 393 renal; 75.5 µM in the experiment on HOP-62 NSCLC; 73.1 µM in the experiment on UACC-257 melanoma; 39.4 µM in the experiment on OVCAR-3 ovarian. This molecule also returned a TGI in the experiment on A498 renal of 58.6 µM.

As for `C[C@H](NC(=O)c1c(C(F)F)nn(C)c1Oc1cccc(C(F)(F)F)c1)c1ccc(C(=O)O)cc1`, the GI50 in the experiment on HCT-15 colon, with SW-620 colon, in the experiment on HOP-62 NSCLC, with HCC-2998 colon, in the experiment on UACC-257 melanoma and in the experiment on OVCAR-3 ovarian was greater than 100 µM throughout. The GI50 in the experiment on NCI-H226 lung, in the experiment on A498 renal and in the experiment with UO-31 renal was greater than 100 µM each time. Moreover, the TGI in the experiment with HCT-15 colon, in the experiment on SW-620 colon, in the experiment with HOP-62 NSCLC, in the experiment on HCC-2998 colon, with UACC-257 melanoma and in the experiment with OVCAR-3 ovarian was greater than 100 µM throughout. The TGI with NCI-H226 lung, with A498 renal and with UO-31 renal was greater than 100 µM in each case.

On to `CCN(CC)c1ccc(N=Nc2ccc(-c3nc4cccn(C)c-4n3)cc2)cc1`, for which the TGI stood at 21 µM in the experiment with HCT-15 colon; 22.9 µM with SW-620 colon; 11.8 µM in the experiment with RXF 393 renal; 24.7 µM in the experiment with HOP-62 NSCLC; 42.3 µM in the experiment on UACC-257 melanoma; 23.1 µM with OVCAR-3 ovarian. Moreover, the TGI in the experiment on NCI-H226 lung came to 43.8 µM; in the experiment with A498 renal, 28.3 µM; in the experiment with UO-31 renal it was 41 µM.

For `COC(=O)CC(C(C(C)=O)C(=O)OCc1ccccc1)N1C(=O)OC(c2ccccc2)C1c1ccccc1` (stereo unspecified), the TGI with HCT-15 colon, with SW-620 colon, in the experiment with RXF 393 renal, with HOP-62 NSCLC, in the experiment with HCC-2998 colon and in the experiment with UACC-257 melanoma was greater than 100 µM each time. Also, the TGI is 75.3 µM and > 100 µM in the experiment with OVCAR-3 ovarian; 80.7 µM and > 100 µM in the experiment on NCI-H226 lung. Moreover, the GI50 in the experiment with RXF 393 renal is 29.1 µM and 84.9 µM; in the experiment on UACC-257 melanoma, 23.6 µM and 55.3 µM; in the experiment on NCI-H226 lung it was 12.2 µM and 77.5 µM.

`Cc1cccc(Nc2cc(Cl)nc(SCC(=O)O)n2)c1C`: the TGI in the experiment with HCT-15 colon, with SW-620 colon, in the experiment on RXF 393 renal, in the experiment on HOP-62 NSCLC, in the experiment with UACC-257 melanoma and in the experiment with OVCAR-3 ovarian was greater than 100 µM in each case. Further, the TGI with NCI-H226 lung and in the experiment with A498 renal was greater than 100 µM throughout.

For `CCCCCCCCCCOC(=O)c1cc[n+](C)cc1`, the TGI was 29.5 µM in the experiment on HCT-15 colon; 34.5 µM in the experiment on SW-620 colon; 34.3 µM in the experiment with RXF 393 renal; 30.6 µM in the experiment with HOP-62 NSCLC; 34 µM with UACC-257 melanoma; 28.9 µM in the experiment with OVCAR-3 ovarian. The figures for the TGI in the experiment on NCI-H226 lung, in the experiment with A498 renal and with UO-31 renal were 32.7 µM, 36.9 µM and 30.3 µM, respectively.

`COc1cc(C2c3cc4c(cc3[C@@H](N(C)c3ccc(N(C)C)cc3)C3COC(=O)C23)OCO4)cc(OC)c1O` (stereo partly specified): the TGI in the experiment on HCT-15 colon is 25.7 µM; in the experiment with SW-620 colon it was 21.8 µM; in the experiment with HOP-62 NSCLC, greater than 100 µM; in the experiment with HCC-2998 colon, 20.8 µM; with UACC-257 melanoma it was 18 µM; in the experiment on OVCAR-3 ovarian, 0.516 µM. Moreover, the figures for the TGI with NCI-H226 lung, in the experiment with A498 renal and with UO-31 renal were 0.625 µM, greater than 100 µM and 19.4 µM, respectively.

As to `O/N=C\C(=Nc1ccc(Cc2ccc(N=C(/C=N\O)NO)cc2)cc1)NO`, the TGI in the experiment on HCT-15 colon, in the experiment with SW-620 colon, with HOP-62 NSCLC, in the experiment on HCC-2998 colon, in the experiment with UACC-257 melanoma and in the experiment on OVCAR-3 ovarian was greater than 100 µM in each case. The results for the TGI with NCI-H226 lung, in the experiment with A498 renal and with UO-31 renal were greater than 100 µM, greater than 100 µM and 65 µM, respectively.
